Test results reported in patent US20250380697A1, “ISOXAZOLINE DERIVATIVE COMPOUND AND INSECTICIDAL COMPOSITION COMPRISING SAME” (KYUNG NONG CORPORATION, priority 2022, published 2025).

What was measured:
Assay type in all cases: in vivo
[1] = system: Spodoptera litura; assay: Pesticidal activity against Spodoptera litura, leaf-dipping method; conditions: 48 h, read-out: mortality rate against Spodoptera litura
Protocol: Cabbage (Daiya) leaves were cut into pieces with a diameter of 5.8 cm, dipped in each of the pesticide compositions prepared in Examples (a 5% acetone solution in which each of the compounds of Synthesis Examples (concentration: 100 ppm) was diluted) for 30 seconds, and sufficiently shade-dried. Then, the shade-dried cabbage leaves were placed in a petri dish (8.8 cm in diameter) covered with a filter paper and repeatedly inoculated 3 times with the second instar larvae of Spodoptera litura, 10 larvae per inoculation. In this case, Spodoptera litura larvae used were those which were purchased from the Bio Utilization Institute (Andong, Korea). Then, the Spodoptera litura larvae were stored under the conditions of 16 hours of light and 8 hours of dark, 25±1° C., and relative humidity of 50-60%, and the number of live Spodoptera litura larvae was counted 48 hours after the inoculation. Thereafter, the larvae mortality rate was calculated in the same manner as in Test Example 1 above.

[2] = system: Plutella xylostella; assay: Pesticidal activity against Plutella xylostella, leaf-dipping method; conditions: 48 h, read-out: larvae mortality rate against Plutella xylostella
Protocol: Cabbage (Daiya) leaves were cut into pieces with a diameter of 5.8 cm, dipped in each of the pesticide compositions prepared in Examples (a 5% acetone solution in which each of the compounds of Synthesis Examples (concentration: 100 ppm) was diluted) for 30 seconds, and sufficiently shade-dried. Then, the shade-dried cabbage leaves were placed in a petri dish (8.8 cm in diameter) covered with a filter paper and repeatedly inoculated 3 times with third instar larvae of Plutella xylostella, 10 larvae per inoculation. In particular, Plutella xylostella larvae used were those which were collected in a place near Gyeongju (Korea) in 2000 and bred in a breeding room for multiple generations. Then, the Plutella xylostella larvae were stored under the conditions of 16 hours of light and 8 hours of dark, 25±1° C., and relative humidity of 50-60%, and the number of live Plutella xylostella larvae was counted 48 hours after the inoculation. Thereafter, the larvae mortality rate was calculated by correcting the density after treatment based on the density before treatment, as shown in Equation 1 and Equation 2 below, and converting the same into the corrected mortality rate for untreated (Reference: A method of computing the effectiveness of an insecticide. J. Econ. Entomol. 18:265˜267. Abbott, 1925).

[3] = system: Frankliniella occidentalis; assay: Pesticidal activity against Frankliniella occidentalis, spray method; conditions: 48 h, read-out: mortality rate against Frankliniella occidentalis
Text: A water-soaked filter paper (9.0 cm in diameter) was placed in an insect breeding dish (Lab Guide®) with a diameter of 9.0 cm and a height of 4.0 cm, and then parafilm (width 4.0 cm×height 4.0 cm) was placed thereon. Before treating with a pesticide composition, 10 adult Frankliniella occidentalis were inoculated per petri dish using a No. 4 brush. In this case, Frankliniella occidentalis adults used were those purchased from the Bio Utilization Institute (Andong, Korea). Then, each of the pesticide compositions prepared in Examples (a diluted solution in which each of the compounds of Synthesis Examples (concentration: 100 ppm) was diluted; the solvent=distilled water+acetone 50,000 mg/L+Triton X-100 100 mg/L) was loaded into a 100 mL small sprayer, and sprayed 10-12 times at a distance of 30 cm and a height of 50 cm, and one cotyledons of soybean, which is a host plant, were added one at a time. Then, the Frankliniella occidentalis adults were stored under the conditions of 16 hours of light and 8 hours of darkness, 25±1° C., and relative humidity of 50-60%, and the number of live Frankliniella occidentalis adults was counted 48 hours after the inoculation. Thereafter, the larvae mortality rate was calculated in the same manner as in Test Example 1 above.

Measured: mortality at 100 ppm

Cc1cc(C2=NOC(c3cc(Cl)cc(Cl)c3)(C(F)(F)F)C2)ccc1C(=O)NC(=O)c1cn(C)nc1C(F)(F)F (stereo not drawn) [Synthesis Example 47]
≥ 80%: all assays above

Cc1cc(C2=NOC(c3cc(Cl)cc(Cl)c3)(C(F)(F)F)C2)ccc1C(=O)NC(=O)C1(F)CC1 (stereo not drawn) [Synthesis Example 49]
≥ 80%: all assays above

Cc1cc(C2=NOC(c3cc(Cl)cc(Cl)c3)(C(F)(F)F)C2)ccc1C(=O)NC(=O)C1CC1(F)F (stereo not drawn) [Synthesis Example 50]
≥ 80%: all assays above

Cc1cc(C2=NOC(c3cc(Cl)cc(Cl)c3)(C(F)(F)F)C2)ccc1C(=O)NC(=O)C1CC12CCC2 (stereo not drawn) [Synthesis Example 52]
≥ 80%: all assays above

Cc1cc(C2=NOC(c3cc(Cl)cc(Cl)c3)(C(F)(F)F)C2)ccc1C(=O)NC(=O)C1CC1C1CC1 (stereo not drawn) [Synthesis Example 53]
≥ 80%: all assays above

Cc1cc(C2=NOC(c3cc(Cl)cc(Cl)c3)(C(F)(F)F)C2)ccc1C(=O)NC(=O)CC1CC1 (stereo not drawn) [Synthesis Example 55]
≥ 80%: all assays above

Cc1cc(C(=O)NC(=O)c2ccc(C3=NOC(c4cc(Cl)cc(Cl)c4)(C(F)(F)F)C3)cc2C)c(C)o1 (stereo not drawn) [Synthesis Example 56]
≥ 80%: all assays above

Cc1cc(C(=O)NC(=O)c2ccc(C3=NOC(c4cc(Cl)cc(C(F)(F)F)c4)(C(F)(F)F)C3)cc2C)c(C)o1 (stereo not drawn) [Synthesis Example 57]
≥ 80%: all assays above

Cc1cc(C2=NOC(c3cc(Cl)cc(Cl)c3)(C(F)(F)F)C2)ccc1C(=O)NC(=O)c1ccco1 (stereo not drawn) [Synthesis Example 58]
≥ 80%: all assays above

Cc1cc(C2=NOC(c3cc(Cl)cc(C(F)(F)F)c3)(C(F)(F)F)C2)ccc1C(=O)NC(=O)c1ccco1 (stereo not drawn) [Synthesis Example 59]
≥ 80%: all assays above

Cc1cc(C2=NOC(c3cc(Cl)cc(C(F)(F)F)c3)(C(F)(F)F)C2)ccc1C(=O)NC(=O)C1CCOCC1 (stereo not drawn) [Synthesis Example 65]
≥ 80%: all assays above

Cc1cc(C2=NOC(c3cc(Cl)cc(Cl)c3)(C(F)(F)F)C2)ccc1C(=O)NC(=O)N1CCCCC1 (stereo not drawn) [Synthesis Example 66]
≥ 80%: all assays above

Cc1cc(C2=NOC(c3cc(Cl)cc(C(F)(F)F)c3)(C(F)(F)F)C2)ccc1C(=O)NC(=O)N1CCCCC1 (stereo not drawn) [Synthesis Example 67]
≥ 80%: all assays above

Cc1cc(C2=NOC(c3cc(Cl)cc(Cl)c3)(C(F)(F)F)C2)ccc1C(=O)NC(=O)C1CCCC1 (stereo not drawn) [Synthesis Example 68]
≥ 80%: all assays above

Cc1cc(C2=NOC(c3cc(Cl)cc(C(F)(F)F)c3)(C(F)(F)F)C2)ccc1C(=O)NC(=O)C1CCCC1 (stereo not drawn) [Synthesis Example 69]
≥ 80%: all assays above

CC(C)=CC(=O)NC(=O)c1ccc(C2=NOC(c3cc(Cl)cc(C(F)(F)F)c3)(C(F)(F)F)C2)cc1C (stereo not drawn) [Synthesis Example 70]
≥ 80%: all assays above

C/C=C/C(=O)NC(=O)c1ccc(C2=NOC(c3cc(Cl)cc(C(F)(F)F)c3)(C(F)(F)F)C2)cc1C (stereo not drawn) [Synthesis Example 71]
≥ 80%: all assays above

C/C=C/C=C/C(=O)NC(=O)c1ccc(C2=NOC(c3cc(Cl)cc(C(F)(F)F)c3)(C(F)(F)F)C2)cc1C (stereo not drawn) [Synthesis Example 72]
≥ 80%: all assays above

Cc1cc(C2=NOC(c3cc(Cl)cc(C(F)(F)F)c3)(C(F)(F)F)C2)ccc1C(=O)NC(=O)CC1CC1 (stereo not drawn) [Synthesis Example 75]
≥ 80%: all assays above

Cc1cc(C2=NOC(c3cc(Cl)cc(C(F)(F)F)c3)(C(F)(F)F)C2)ccc1C(=O)NC(=O)c1ccc(C#N)cc1 (stereo not drawn) [Synthesis Example 76]
≥ 80%: all assays above

Cc1cc(C2=NOC(c3cc(Cl)cc(C(F)(F)F)c3)(C(F)(F)F)C2)ccc1C(=O)NC(=O)c1nccs1 (stereo not drawn) [Synthesis Example 78]
≥ 80%: all assays above

Cc1cc(C2=NOC(c3cc(Cl)cc(Cl)c3)(C(F)(F)F)C2)ccc1C(=O)NC(=O)c1nccs1 (stereo not drawn) [Synthesis Example 79]
≥ 80%: all assays above

Cc1cc(C(=O)NC(=O)c2ccc(C3=NOC(c4cc(Cl)cc(Cl)c4)(C(F)(F)F)C3)cc2C)no1 (stereo not drawn) [Synthesis Example 80]
≥ 80%: all assays above

Cc1cc(C2=NOC(c3cc(Cl)cc(Cl)c3)(C(F)(F)F)C2)ccc1C(=O)NC(=O)c1ccno1 (stereo not drawn) [Synthesis Example 81]
≥ 80%: all assays above

Cc1cc(C(=O)NC(=O)c2ccc(C3=NOC(c4cc(Cl)cc(C(F)(F)F)c4)(C(F)(F)F)C3)cc2C)no1 (stereo not drawn) [Synthesis Example 82]
≥ 80%: all assays above

Cc1cc(C2=NOC(c3cc(Cl)cc(C(F)(F)F)c3)(C(F)(F)F)C2)ccc1C(=O)NC(=O)c1ccno1 (stereo not drawn) [Synthesis Example 83]
≥ 80%: all assays above

Cc1cc(C2=NOC(c3cc(Cl)cc(C(F)(F)F)c3)(C(F)(F)F)C2)ccc1C(=O)NC(=O)c1cc(C2CC2)on1 (stereo not drawn) [Synthesis Example 84]
≥ 80%: all assays above

Cc1cc(C2=NOC(c3cc(Cl)cc(C(F)(F)F)c3)(C(F)(F)F)C2)ccc1C(=O)NC(=O)C1CCCO1 (stereo not drawn) [Synthesis Example 85]
≥ 80%: all assays above
